Test results reported in PMC10592443 (Cell chemical biology, 2023).
Residues, ends and D or L forms follow the SMILES beside them. *: point of attachment. Cbz = O=C(OCc1ccccc1)*; CH2F = FC*

Columns and labels:
recombinant PP5-His6 = target: T1, recombinant PP5-His6 (Homo sapiens, UniProt P53041); assay: PP5 phosphatase activity and inhibition assay; type: biochemical; settings: phospho-S211-GR peptide substrate
T1 sequence (P53041 1-499): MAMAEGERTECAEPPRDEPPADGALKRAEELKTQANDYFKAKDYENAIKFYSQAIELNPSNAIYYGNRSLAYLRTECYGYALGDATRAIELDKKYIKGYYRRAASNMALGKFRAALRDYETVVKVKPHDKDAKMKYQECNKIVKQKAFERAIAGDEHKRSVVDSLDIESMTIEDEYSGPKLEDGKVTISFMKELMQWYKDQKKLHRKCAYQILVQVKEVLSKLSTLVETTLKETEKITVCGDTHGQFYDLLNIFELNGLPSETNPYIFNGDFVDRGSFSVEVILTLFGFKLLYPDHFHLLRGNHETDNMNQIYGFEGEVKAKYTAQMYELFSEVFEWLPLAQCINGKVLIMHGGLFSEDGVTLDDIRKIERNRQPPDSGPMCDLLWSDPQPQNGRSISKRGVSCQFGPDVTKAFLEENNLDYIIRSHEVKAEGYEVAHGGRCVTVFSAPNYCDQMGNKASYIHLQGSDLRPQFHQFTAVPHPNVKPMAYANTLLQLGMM

786-O cells [1] = assay: Cell viability / proliferation; type: cell-based, Human; settings: varying doses, 48hrs
786-O cells [2] = assay: Induction of apoptosis by immunoblotting of apoptotic markers; type: cell-based, Human
PP5-FLAG = target: T2, PP5-FLAG (Homo sapiens, UniProt P53041); assay: Biotin-P5 and biotin-P13 streptavidin pulldown from HEK293 lysate; type: binding; settings: for binding to PP5-FLAG (co-pulldown): HEK293 lysate, 0.01-10μM biotinylated compound
T2 sequence (P53041 1-499): T1 sequence (P53041 1-499)

PP2A = assay: Biotinylated compound pulldown from 786-O lysate, co-pulldown of PP2A; type: binding, Human; settings: 1μM
[3] = target: T3, PP5-FLAG active site point mutants (Homo sapiens, UniProt P53041, R400A); assay: Biotin-P13 streptavidin pulldown of PP5 active site point mutants; type: binding; settings: R400A mutant
T3 sequence (P53041 2-499 R400A): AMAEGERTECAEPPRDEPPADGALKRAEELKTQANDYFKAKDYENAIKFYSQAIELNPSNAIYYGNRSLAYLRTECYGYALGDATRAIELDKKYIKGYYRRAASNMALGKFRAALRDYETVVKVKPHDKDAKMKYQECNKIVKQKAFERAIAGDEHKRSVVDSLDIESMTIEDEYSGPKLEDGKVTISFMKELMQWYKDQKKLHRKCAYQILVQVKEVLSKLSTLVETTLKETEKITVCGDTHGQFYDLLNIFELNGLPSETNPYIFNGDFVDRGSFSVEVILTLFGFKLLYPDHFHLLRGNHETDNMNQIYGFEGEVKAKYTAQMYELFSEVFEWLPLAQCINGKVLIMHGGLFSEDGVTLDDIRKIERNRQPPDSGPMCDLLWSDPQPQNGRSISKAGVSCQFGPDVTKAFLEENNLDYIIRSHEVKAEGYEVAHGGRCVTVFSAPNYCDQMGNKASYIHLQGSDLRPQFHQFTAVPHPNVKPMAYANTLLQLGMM

[4] = test system: PP5-FLAG active site point mutants; assay: as above; type: binding, Human
HEK293 cells = assay: Hsp90 inhibition time course, protein levels by immunoblot; type: cell-based, Human; settings: 2μM
PP5 = settings: ref [52]-[54]; cited from earlier work
PP1 = settings: ref [52]-[54]; cited from earlier work
786-O cells [5] = assay: Phosphorylation of S194-FADD by western blot; type: cell-based, Human; settings: indicated amounts, 24hrs
A498 cells = assay: Phosphorylation of S194-FADD by western blot; type: cell-based, Human; settings: indicated amounts, 24hrs
[6] = test system: VHL-null ccRCC cell lines; settings: ref [2]; cited from earlier work
VHL-null ccRCC cells = assay: Propidium iodide staining, cell death by flow cytometry; type: cell-based, Human; settings: 30 or 40μM, A498 and 786-O versus Caki-1 and Caki-2; dose dependent

COC(=O)c1cccc(NS(=O)(=O)c2c(C)noc2C)c1 [Compound P5, Methyl m-(3,5-dimethyl-4-isoxazolylsulfonylamino)benzoate]
mode of PP5 inhibition (enzyme kinetics, Lineweaver-Burk plot) (recombinant PP5-His6): competitive inhibitors | proliferation of 786-O cells (MTT) (786-O cells [1]): significantly inhibited the proliferation | cleavage of apoptotic markers (immunoblot) (786-O cells [2]; 10μM, 24hrs): cleavage of the apoptotic markers caspase 3 and 8 and PARP

Cc1noc(C)c1S(=O)(=O)Nc1cccc(C(=O)N2CCN(C(=O)CCC[C@@H]3SC[C@@H]4NC(=O)N[C@@H]43)CC2)c1 [biotin-P5, N-[3-(4-(4-[(3aS,4S,6aR)-2-Oxo-hexahydro-1H-thieno[3,4-d]imidazol-4-yl]butanoyl)piperazine-1-carbonyl)phenyl]-3,5-dimethyl-1,2-oxazole-4-sulfonamide]
binding to PP5-FLAG (co-pulldown) (PP5-FLAG): binds | binding to PP2A (co-pulldown) (PP2A): did not bind to PP2A

COC(=O)C[C@H](NC(=O)[C@H](C)NC(=O)[C@@H](NC(=O)OCc1ccccc1)C(C)C)C(=O)CF [z-VAD-fmk, reference compound] (Cbz-Val-Ala-Asp(OMe)-CH2F)
effect on IC261-induced extrinsic apoptosis (786-O cells [2]; 10μM for 1hr, then IC261 for 16hrs): reversed this effect

Cc1ccc(N(CCCNC(=O)CCC[C@@H]2SC[C@@H]3NC(=O)N[C@@H]32)S(=O)(=O)c2c(C)noc2C)cc1C [biotin-P13, 4-[(3aS,4S,6aR)-2-Oxo-hexahydro-1H-thieno[3,4-d]imidazol-4-yl]-N-(3-[N-(3,4-dimethylphenyl)3,5-dimethyl-1,2-oxazole-4-sulfonamido]propyl}butanamide]
binding to PP5-FLAG relative to biotin-P5 (PP5-FLAG; 10μM): bound more | binding to PP5-FLAG (co-pulldown) (PP5-FLAG): binds | binding of PP5 mutant to biotinylated compound compared to WT PP5 [3]: reduced binding | binding of PP5 mutants to biotinylated compound ([4]; H304Q, M309C and W386F mutants): unable to bind | binding of PP5 mutants to biotinylated compound compared to WT PP5 ([4]; R275A and Y451F mutants): increased binding | binding to PP2A (co-pulldown) (PP2A): did not bind to PP2A

CC1(C)CC(=O)c2c(C(F)(F)F)nn(-c3ccc(C(N)=O)c(N[C@H]4CC[C@H](O)CC4)c3)c2C1 [SNX-2112]
RIPK1 protein levels (HEK293 cells; 16 hr): decreased RIPK1 protein levels | FADD protein levels (HEK293 cells; throughout the time course): did not observe a decrease in FADD levels | Hsp90 clients Tsc2, Akt and phos-Ser473-Akt protein levels (HEK293 cells; time course): destabilized and degraded

Cc1ccc(NS(=O)(=O)c2c(C)noc2C)cc1C [Compound P13, (3,5-Dimethyl-4-isoxazolylsulfonyl)(3,4-xylyl)amine]
mode of PP5 inhibition (enzyme kinetics, Lineweaver-Burk plot) (recombinant PP5-His6): competitive inhibitors | proliferation of 786-O cells (MTT) (786-O cells [1]): significantly inhibited the proliferation | cleavage of apoptotic markers (immunoblot) (786-O cells [2]; 10μM, 24hrs): cleavage of the apoptotic markers caspase 3 and 8 and PARP

CN1CCN(C(=O)C2C(C(=O)O)[C@H]3CC[C@@H]2O3)CC1 (some centres unmarked) [LB-100]
inhibition of PP5 (PP5): inhibit PP5 and PP1 | inhibition of PP1 (PP1): inhibit PP5 and PP1

Cc1noc(C)c1S(=O)(=O)N(CCCC#N)c1ccc(Oc2ccccc2)cc1 [Compound P075, 4-[(3,5-Dimethyl-4-isoxazolylsulfonyl)(p-phenoxyphenyl)amino]butyronitrile]
induction of apoptosis (cleaved PARP, cleaved caspase 8) (786-O cells [2]; 10μM, 24hrs): ability to induce apoptosis

CCCCN(c1ccc(Oc2ccccc2)cc1)S(=O)(=O)c1c(C)noc1C [Compound P058, N-Butyl(3,5-dimethyl-4-isoxazolylsulfonyl)(p-phenoxyphenyl)amine]
induction of apoptosis (cleaved PARP, cleaved caspase 8) (786-O cells [2]; 10μM, 24hrs): ability to induce apoptosis

COc1cc(OC)c(C=C2C(O)=Nc3ccccc32)c(OC)c1 [IC261]
induction of extrinsic apoptosis (apoptotic markers) (786-O cells [2]; indicated amounts, 16hrs): induced extrinsic apoptosis in a dose-dependent manner | S194-FADD phosphorylation (786-O cells [5]): increase in S194-FADD phosphorylation | S194-FADD phosphorylation (A498 cells): increase in S194-FADD phosphorylation | PP5 activity [6]: decreased PP5 activity | apoptosis [6]: induced apoptosis

Cc1noc(C)c1S(=O)(=O)Nc1ccc(Cc2ccccc2)cc1 [Compound P053, (3,5-Dimethyl-4-isoxazolylsulfonyl)(p-benzylphenyl)amine]
cleavage of caspase 3 and PARP (786-O cells [2]; 10μM, 24hrs): increased cleavage of the executioner caspase 3 | cleavage of caspase 8 and caspase 9 (extrinsic versus intrinsic apoptosis) (786-O cells [2]; 10μM, 24hrs): cleavage of caspase 8 but not caspase 9 | induction of apoptosis (cleaved PARP, cleaved caspase 8) (786-O cells [2]; 10μM, 24hrs): ability to induce apoptosis | cell death (PI stained cells) (VHL-null ccRCC cells): selectively caused cell death

Cc1noc(C)c1S(=O)(=O)N(CCCCl)c1ccc(Oc2ccccc2)cc1 [Compound P059, (3-Chloropropyl)(3,5-dimethyl-4-isoxazolylsulfonyl)(p-phenoxyphenyl)amine]
induction of apoptosis (cleaved PARP, cleaved caspase 8) (786-O cells [2]; 10μM, 24hrs): ability to induce apoptosis
